Measurements reported in patent US11059844B2, “Immune stimulating macrolides” (ISR IMMUNE SYSTEM REGULATION HOLDING AB (PUBL), priority 2017, dated 2021).

Key:
CD4+ T cells = assay: IL-1beta secretion from CD4+ T cells (cytometric bead assay); type: cell-based, Human; conditions: 2 days
Procedure: FIG. 13: IL1b secretion (as measured by cytometric bead assay) from PBMC, macrophages or CD4 T cells stimulated with indicated compound for 48 h.
Study 12: PBMCs, macrophages and CD4+ T cells where exposed to compounds 1 and 2 for 2 days.

human TLR2 = biological target: T1, human TLR2 (Homo sapiens, UniProt O60603); assay: TLR2 reporter assay (HEK-293-TLR, SEAP); type: cell-based
T1 construct: host or cells: recombinant HEK-293-TLR cell lines
T1 sequence (O60603 21-784): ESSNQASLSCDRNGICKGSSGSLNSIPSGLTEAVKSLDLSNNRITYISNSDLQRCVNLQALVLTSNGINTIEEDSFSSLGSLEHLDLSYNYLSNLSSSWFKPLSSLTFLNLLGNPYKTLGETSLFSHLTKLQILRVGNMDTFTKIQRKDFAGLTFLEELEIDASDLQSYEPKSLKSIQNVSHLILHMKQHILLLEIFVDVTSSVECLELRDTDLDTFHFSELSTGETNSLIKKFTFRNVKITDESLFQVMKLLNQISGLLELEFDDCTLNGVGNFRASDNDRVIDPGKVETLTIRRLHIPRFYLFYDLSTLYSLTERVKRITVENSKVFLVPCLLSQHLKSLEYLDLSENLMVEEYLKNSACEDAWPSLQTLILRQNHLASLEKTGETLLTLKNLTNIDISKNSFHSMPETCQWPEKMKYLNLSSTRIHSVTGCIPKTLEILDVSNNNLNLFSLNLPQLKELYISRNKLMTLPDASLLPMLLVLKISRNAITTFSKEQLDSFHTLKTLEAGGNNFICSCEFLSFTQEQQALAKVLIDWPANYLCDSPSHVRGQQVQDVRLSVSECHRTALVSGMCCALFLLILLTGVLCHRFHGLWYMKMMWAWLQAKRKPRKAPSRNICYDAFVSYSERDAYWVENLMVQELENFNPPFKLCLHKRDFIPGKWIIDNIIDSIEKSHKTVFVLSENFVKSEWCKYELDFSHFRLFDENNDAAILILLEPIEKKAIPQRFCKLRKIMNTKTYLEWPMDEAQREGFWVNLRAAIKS
Procedure: Samples and controls were tested in duplicate on recombinant HEK-293-TLR cell lines using a cell reporter assay at Invivogen using their standard assay conditions. These cell lines functionally over-express human TLR2 protein as well as a reporter gene which is a secreted alkaline phosphatase (SEAP). The production of this reporter gene is driven by an NFkB inducible promoter. The TLR reporter cell lines activation results are given as optical density values (OD).
20 μl of each test article were used to stimulate the hTLR2 reporter cell lines in a 200 μl of final reaction volume. Samples were tested in duplicate, with at least two concentrations tested—20 uM and 10 uM.
Compounds were tested using a TLR2 reporter assay (see general methods) that measured for stimulation of the TLR2 receptor. Stimulatory effect was measured as an increase in optical density (OD) due to release of secreted alkaline phosphatase (SEAP) and is shown in table 4: […]

[1] = test system: Monocytes differentiated into macrophages; assay: CD80 expression on monocytes differentiated into macrophages; type: cell-based, Human; conditions: 24 h
Procedure: Human peripheral blood mononuclear cells (PBMCs) were purified from healthy donors with Ficoll-Paque density centrifugation. Cells were cultured in complete RPMI-1640 media (Invitrogen) supplemented with 25 mM HEPES, L-glutamine, Sodium pyruvate (Sigma), 10% fetal bovine serum, 100 μg/mL penicillin and 100 μg/mL streptomycin (Hyclone) for 24-72 hours in 37° C., 5% CO2 and stimulated with and increasing concentrations of compound 1 and 2. Cells were then washed in PBS and stained with monoclonal antibodies specific for cell surface markers (BD Pharmingen) and analysed with flow cytomtetry using a BD FACS Canto II flow cytometer. All samples were tested in duplicates.
Human peripheral blood mononuclear cells (PBMCs) were purified from healthy donors with Ficoll-Paque density centrifugation. Cells were cultured in complete RPMI-1640 medium (Invitrogen) supplemented with 25 mM HEPES, L-glutamine, Sodium pyruvate (Sigma), 10% fetal bovine serum, 100 μg/mL penicillin and 100 μg/mL streptomycin (Hyclone). […] The cells were removed from the plate, washed in PBS and analysed for expression of cell specific surface markers and MHC class I with flow cytomtery using monoclonal antibodies from BD Pharmingen and a FACS Canto II flow cytometer.

PBMCs = assay: Supernatant IL-10 sandwich ELISA; type: cell-based, Human; conditions: […] with 100 U/mL IL-2, 48 h and 7 days
Procedure: Supernatant IL-10 was measured with a standard sandwich ELISA (all antibodies from BD Biosciences) after 48 hours and 7 days incubation with 2.5 μM of compound 1 and 100 U/mL IL-2 (Miltenyi Biotechnologies) in complete RPMI media, 37° C., 5% CO2
Supernatant IL-10 was measured with a standard sandwich ELISA (all antibodies from BD Biosciences) after 48 hours and 7 days incubation with 2.5 uM of compound 1 and 100 U/mL IL-2 (Miltenyi Biotechnologies) in complete RPMI media, 37° C., 5% CO2.
This indicate an immune inhibitory effect under certain conditions (FIG. 5).

CD25+ cells = assay: CD25 expression in blood of mice after i.v. dosing; type: in vivo, C57bl/6 mice; conditions: highest dose of 5 mg/kg, 24 h
Procedure: FIG. 14: % CD25high cells in blood of C57bl/6 mice injected 24 h previously with indicated dose of compound 1. CD25 expression was measured by flow cytometry.
Study 13: Compound 1 was administered i.v. to C57bl/6 mice at 0.165 mg/kg to 5 mg/kg. CD25+ cell abundance was increased in animals receiving the highest dose of 5 mg/kg (FIG. 14), as was body weight in the same group (not shown).

[2] = test system: Streptococcus salivarius subsp. salivarius; assay: Minimum Inhibitory Concentration (MIC) assay; type: cell-based; conditions: anaerobic, 37° C., 18 h
Procedure: (§1) The bioactivity of macrolide compounds against 4 strains of common gut bacteria (Escherichia coli, Streptococcus salivarius subsp. salivarius, Lactobacillus casei and Bifidobacterium longum subsp. infantis) and common mammalian skin isolate Micrococcus luteus, was assessed using the Minimum Inhibitory Concentration (MIC) assay. Bacterial strains were purchased from DSMZ (Brunswick, Germany) except M. luteus which was obtained from NCIMB, and stored in 20% glycerol at −80° C. Stock solutions (100% DMSO) of positive controls (azithromycin and erythromycin), and of test compounds 1 and 2 were diluted in broth to working stock concentrations of 256 μg/ml (final assay testing concentration range 128 μg/ml to 0.00391 μg/ml). Stock solutions of all other compounds were diluted in broth to working stock concentrations of 128 μg/ml (final assay testing concentration range 64 μg/ml to 0.00195 μg/ml). Bacterial strains were cultivated in appropriate broth in an anaerobic chamber at 37° C., except for M. luteus which was incubated aerobically at 37° C. 18 h cultures were diluted in broth to an OD595 of 0.1 and then further diluted 1:10. In 96-well plates, in duplicate, 200 μl working stock of test compound was transferred to well 1 and serially diluted (1:2) in broth. 100 μl bacterial suspension was aliquoted into each well and mixed thoroughly. Appropriate sterility controls were included and plates were incubated in an anaerobic chamber, or aerobically (M. luteus) at 37° C. for 18 h. The MIC was determined to be the concentration of test compound in the first well with no visible growth.

Lactobacillus casei = assay: Minimum Inhibitory Concentration (MIC) assay; type: cell-based; conditions: Lacticaseibacillus casei; anaerobic, 37° C., 18 h
Procedure: as §1

[3] = test system: Bifidobacterium longum subsp. infantis; assay: Minimum Inhibitory Concentration (MIC) assay; type: cell-based; conditions: anaerobic, 37° C., 18 h
Procedure: as §1

Escherichia coli = assay: Minimum Inhibitory Concentration (MIC) assay; type: cell-based; conditions: anaerobic, 37° C., 18 h
Procedure: as §1

Micrococcus luteus = assay: Minimum Inhibitory Concentration (MIC) assay; type: cell-based; conditions: aerobic, 37° C., 18 h
Procedure: as §1

CC[C@H]1OC(=O)[C@H](C)[C@@H](O[C@H]2C[C@@H](N(C)C)[C@H](O)[C@@H](C)O2)[C@H](C)[C@@H](O)[C@](C)(O)C[C@@H](C)CN(C)[C@H](C)[C@@H](O)[C@]1(C)O [Compound 1]
IL-1beta secretion, CD4+ T cells (CD4+ T cells): no IL-1beta was induced | lowest concentration at which TLR2 was stimulated (concentrations down to) (human TLR2): 5 µM | OD after addition of 5 μM test article (human TLR2; 5 μM): 0.111 OD | OD after addition of 10 μM test article (human TLR2; 10 μM): 0.202 OD | OD after addition of 20 μM test article (human TLR2; 20 μM): 0.458 OD | CD80 on macrophages [1]: upregulated | production of IL-10 (PBMCs): increased production | CD25+ cell abundance (CD25+ cells): increased | MIC [2]: > 64 µg/mL | MIC (Lactobacillus casei): > 64 µg/mL | MIC [3]: > 64 µg/mL | MIC (Escherichia coli): > 64 µg/mL | MIC (Micrococcus luteus): > 256 µg/mL
